# From patent US20120165319A1, “INHIBITORS OF INTERLEUKIN-1 BETA CONVERTING ENZYME” (VERTEX PHARMACEUTICALS INCORPORATED, priority 1995, published 2012)
# Read-outs that look alike come from different tables or passages of the source.
# Experiments:
# [1] = tested on: IL-1β production, LPS-challenged mice; assay: In vivo acute assay for efficacy as anti-inflammatory agent: LPS-induced IL-1β production in mice; parameters: species or system mouse; conditions: for inhibition at 50 mg/kg: Mus musculus, po, read-out: percent inhibition of IL-1β production; for inhibition at 50 mg/kg / percent inhibition of IL-1β production: LPS challenged mice, compound PO, 50 mg/kg; for Inhibition (%) of IL-1β production in LPS-challenged mice: oral, dosed at time of LPS challenge
# Description: In Vivo Acute Assay for Efficacy as Anti-Inflammatory Agent
# LPS-Induced IL-1β Production.
# Efficacy of 214e and 217e was evaluated in CD1 mice (n=6 per condition) challenged with LPS (20 mg/kg IP). […] Blood was collected seven hours after LPS challenge. Serum IL-1β levels were measure by ELISA. […] Similar results were obtained in a second experiment. […] However, a clear dose response was not apparent.
# Compounds 214e and 217e (50 mg/kg) were also administered by oral gavage to assess absorption.
# The efficacy of analogs of 214e were also evaluated in LPS challenged mice after IP administration (FIG. 9) and PO administration (FIG. 10).
# […] The protocol is described in Example 7.
# [2] = tested on: IL-1β, human whole blood; assay: Whole blood assay for IL-1β production; assay type: cell-based; conditions: Table 17, read-out: Whole human blood IC50
# In short: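 IL-1β was quantified by ELISA in plasma diluted 1:200. The plasma came from EDTA-anticoagulated human whole blood incubated at 30 °C for 16-18 h with LPS (final 5.0 ng/ml) plus a saline serial dilution of compound. Controls were no-LPS, no-inhibitor and highest-vehicle.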
# [3] = biological target: T1, ICE (Homo sapiens, UniProt P29466); assay: Enzyme assay with UV-visible substrate (visible ICE assay, Succinyl-Tyr-Val-Ala-Asp-pNitroanilide); assay type: biochemical; conditions: Table 17
# T1 sequence (P29466 120-297 limits assumed): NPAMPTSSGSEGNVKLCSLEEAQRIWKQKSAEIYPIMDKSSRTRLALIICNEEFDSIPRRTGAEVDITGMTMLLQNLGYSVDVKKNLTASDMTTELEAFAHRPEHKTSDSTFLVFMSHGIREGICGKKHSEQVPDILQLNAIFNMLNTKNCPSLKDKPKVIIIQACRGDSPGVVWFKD
# T1 sequence (P29466 317-404 limits assumed): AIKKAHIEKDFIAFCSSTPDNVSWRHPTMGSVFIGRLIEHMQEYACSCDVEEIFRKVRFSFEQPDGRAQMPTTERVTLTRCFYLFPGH
# In short: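 Read-out is the rate of pNA chromophore release (mOD/min, linear fit) monitored at 405-603 nm over 20 min at 37° C. Substrate was succinyl-Tyr-Val-Ala-Asp-pNitroanilide, added after a 15 min room-temperature preincubation of ICE with inhibitor.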
# [4] = tested on: IL-1β, human peripheral blood mononuclear cells (PBMC); assay: PBMC cell assay: IL-1β assay with human PBMC or enriched adherent mononuclear cells, LPS-stimulated; assay type: cell-based; conditions: Homo sapiens, PBMC, Table 17
# In short: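 Mature IL-1β is measured by ELISA in supernatants after 16–18 hr at 37 °C, 5% CO2, with LPS (5 ng/ml final) and test compound (0.1% DMSO final). Cells are human PBMC (6×10^6 cells/ml) or plate-adherent mononuclear cells (2.5−3.0×10^5 per well), and the 5–6 compound concentrations span the ICE Ki.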
# [5] = 0 h, administered 0 h relative to time of LPS challenge
# [6] = 2 h, administered −2 h relative to time of LPS challenge
# [7] = administered 0 h relative to time of LPS challenge
# [8] = administered −2 h relative to time of LPS challenge
Structure (SMILES),IC50 ([2]; Homo sapiens) [nM],Ki [3] [nM],IC50 [4] [nM],other results
"O=C(CN1C(=O)[C@@H](NC(=O)c2ccccc2)CN(C(=O)CO)c2ccccc21)N[C@H]1CC(=O)OC1OCc1ccccc1 (mixture of isomers) [Compound 695a, (3S)-2-Oxo-3-benzoylamino-5-hydroxyacetyl-N-[(2RS,3S)-benzyloxy-5-oxo-tetrahydrofuran-3-yl]-2,3,4,5-tetrahydro-1H-1,5-benzodiazepine-1-acetamide]",–,–,–,"inhibition at 50 mg/kg [1, 5]: 78%; inhibition at 50 mg/kg [1, 6]: 49%"
"CN(C)c1ccc(C(=O)N[C@H]2CCC(=O)N3CCC[C@@H](C(=O)N[C@H]4CC(=O)OC4OCc4ccccc4)N3C2=O)cc1 (mixture of isomers) [Compound 213f, [1S,9S(2RS,3S)]9-[(4-Dimethylaminobenzoyl)amino]-6,10-dioxo-1,2,3,4,7,8,9,10-octahydro-N-(2-Benzyloxy-5-oxotetrahydrofuran-3-yl)-6H-pyridazino[1,2-a][1,2]diazepine-1-carboxamide]",–,–,–,"IC50 [2]: 3000 nM; percent inhibition of IL-1β production [1, 7]: 8%; percent inhibition of IL-1β production [1, 8]: (−4) %"
"Nc1ccc(C(=O)N[C@H]2CCC(=O)N3CCC[C@@H](C(=O)N[C@H]4CC(=O)OC4OCc4ccccc4)N3C2=O)cc1Cl (mixture of isomers) [Compound 213h, [1S,9S (2RS,3S)]9-[(3-Chloro-4-aminobenzoyl)amino]-6,10-dioxo-1,2,3,4,7,8,9,10-octahydro-N-(2-Benzyloxy-5-oxotetrahydrofuran-3-yl)-6H-pyridazino[1,2-a][1,2]diazepine-1-carboxamide]",–,–,–,"IC50 [2]: 1500 nM; percent inhibition of IL-1β production [1, 7]: 53%; percent inhibition of IL-1β production [1, 8]: 9%"
"CC(=O)N1C[C@H](NC(=O)c2cc(Cl)c(O)c(Cl)c2)C(=O)N(CC(=O)N[C@H]2CC(=O)OC2OCc2ccccc2)c2ccccc21 (mixture of isomers) [Compound 655, (3S)-2-Oxo-3-(3,5-dichloro-4-hydroxybenzoyl)amino-5-acetyl-N-[(2RS,3S)-benzyloxy-5-oxo-tetrahydrofuran-3-yl]-2,3,4,5-tetrahydro-1H-1,5-benzodiazepine-1-acetamide]",–,–,–,"percent inhibition of IL-1β production [1, 7]: 68%; percent inhibition of IL-1β production [1, 8]: 0%"
"CCO[C@H]1OC(=O)C[C@@H]1NC(=O)[C@@H]1CCCN2C(=O)CC[C@H](NC(=O)c3nccc4ccccc34)C(=O)N12 [Compound 412e, [1S,9S(2S,3S)]N-(2-Ethoxy-5-oxotetrahydrofuran-3-yl)-6,10-dioxo-9-(isoquinolin-1-oylamino)-1,2,3,4,7,8,9,10-octahydro-6-H-pyridazino[1,2-a][1,2]diazepine-1-carboxamide]",–,–,–,Inhibition (%) of IL-1β production in LPS-challenged mice ([1]; 10 mg/kg dose): 5%; Inhibition (%) of IL-1β production in LPS-challenged mice ([1]; 25 mg/kg dose): 17%; Inhibition (%) of IL-1β production in LPS-challenged mice ([1]; 50 mg/kg dose): 61%
COc1ccccc1C(=O)C(=O)N[C@H]1CN(C(C)=O)c2ccccc2N(CC(=O)N[C@H](C=O)CC(=O)O)C1=O [Compound 705],3200,5,2300,–
COc1cccc(OC)c1C(=O)C(=O)N[C@H]1CN(C(C)=O)c2ccccc2N(CC(=O)N[C@H](C=O)CC(=O)O)C1=O [Compound 706],5800,5,2400,–
CC(=O)N1C[C@H](NC(=O)C(=O)c2c(C)cc(C)cc2C)C(=O)N(CC(=O)N[C@H](C=O)CC(=O)O)c2ccccc21 [Compound 709],14000,10,2100,–
O=C[C@H](CC(=O)O)NC(=O)CN1C(=O)[C@@H](NC(=O)c2ccc3c(c2)OCO3)CN(C(=O)CO)c2ccccc21 [Compound 910],3800,10,3400,–
CC(=O)Nc1ccc(C(=O)N[C@H]2CN(C(=O)CO)c3ccccc3N(CC(=O)N[C@H](C=O)CC(=O)O)C2=O)cc1 [Compound 911],1900,9,3500,–
COc1ccc(C(=O)N[C@H]2CN(C(=O)CO)c3ccccc3N(CC(=O)N[C@H](C=O)CC(=O)O)C2=O)cc1 [Compound 912],3800,10,4200,–
CN(C)c1ccc(C(=O)N[C@H]2CN(C(=O)CO)c3ccccc3N(CC(=O)N[C@H](C=O)CC(=O)O)C2=O)cc1 [Compound 913],7000,4.5,2400,–
CC(=O)Nc1ccc(C(=O)N[C@H]2CN(C(=O)CO)c3ccccc3N(CC(=O)N[C@H](C=O)CC(=O)O)C2=O)cc1Cl [Compound 914],2800,5.2,2600,–
CC(=O)Nc1c(Cl)cc(C(=O)N[C@H]2CN(C(=O)CO)c3ccccc3N(CC(=O)N[C@H](C=O)CC(=O)O)C2=O)cc1Cl [Compound 915],1900,11.5,> 8000,–
O=C[C@H](CC(=O)O)NC(=O)CN1C(=O)[C@@H](NC(=O)c2cc3ccccc3[nH]2)CN(C(=O)CO)c2ccccc21 [Compound 919],4300,4,2000,–
O=C[C@H](CC(=O)O)NC(=O)CN1C(=O)[C@@H](NC(=O)c2ccc3[nH]cnc3c2)CN(C(=O)CO)c2ccccc21 [Compound 920],3000,16,2100,–
COc1ccccc1C(=O)C(=O)N[C@H]1CN(C(=O)CO)c2ccccc2N(CC(=O)N[C@H](C=O)CC(=O)O)C1=O [Compound 921],3000,8.5,1800,–
O=C[C@H](CC(=O)O)NC(=O)[C@@H]1CCCN2C(=O)CCN(NC(=O)CCc3ccccc3)C(=O)N12 [Compound 1105],3000,250,3500,–
O=C[C@H](CC(=O)O)NC(=O)[C@@H]1CCCN2C(=O)CCN(NC(=O)C(=O)c3ccccc3)C(=O)N12 [Compound 1106],1700,75,4000,–
O=C[C@H](CC(=O)O)NC(=O)[C@@H]1CCCN2C(=O)CCN(NC(=O)C(=O)c3c[nH]c4ccccc34)C(=O)N12 [Compound 1108],2600,22,1400,–
COc1ccccc1C(=O)C(=O)NN1CCC(=O)N2CCC[C@@H](C(=O)N[C@H](C=O)CC(=O)O)N2C1=O [Compound 1111],4400,18,6050,–
COc1cccc(OC)c1C(=O)C(=O)NN1CCC(=O)N2CCC[C@@H](C(=O)N[C@H](C=O)CC(=O)O)N2C1=O [Compound 1112],2300,3.5,1800,–
Cc1cc(C)c(C(=O)C(=O)NN2CCC(=O)N3CCC[C@@H](C(=O)N[C@H](C=O)CC(=O)O)N3C2=O)c(C)c1 [Compound 1117],1300,35,1700,–
COc1c(Cl)cc(C(=O)NN2CCC(=O)N3CCC[C@@H](C(=O)N[C@H](C=O)CC(=O)O)N3C2=O)cc1Cl [Compound 1125],9000,55,2300,–
"CCOC(=O)C[C@@H](C=O)NC(=O)[C@@H]1CCCN2C(=O)CC[C@H](NC(=O)c3ccccc3)C(=O)N12 [Compound 2100i, [3S(1S,9S)]3-(9-Benzoylamino-6,10-dioxo-1,2,3,4,7,8,9,10-octahydro-6H-pyridazino[1,2-a][1,2]diazepine-1-carboxamido)-4-oxobutanoic acid ethyl ester]",–,–,–,"inhibition at 50 mg/kg [1, 5]: 74%; inhibition at 50 mg/kg [1, 6]: 19%"
"O=C1C[C@H](NC(=O)[C@@H]2CCCN3C(=O)CC[C@H](NC(=O)c4ccccc4)C(=O)N23)[C@H](OC2Cc3ccccc3C2)O1 [Compound 2100m, [1S,9S (2R,3S)]9-Benzamido-6,10-dioxo-N-[2-(2-indanyloxy)-5-oxo-tetrahydrofuran-3-yl]-1,2,3,4,7,8,9,10-octahydro-6H-pyridazino[1,2-a][1,2]diazepine-1-carboxamide]",–,–,–,"inhibition at 50 mg/kg [1, 5]: 42%; inhibition at 50 mg/kg [1, 6]: 40%"
